In patent publication US20250262279A1, “DOSE REGIMEN FOR LONG-ACTING GLP1/GLUCAGON RECEPTOR AGONISTS” (Boehringer Ingelheim International GmbH, priority 2021, published 2025):
Read-outs that look alike come from different tables or passages of the source.

Key:
[1] = Example 1: plasma pharmacokinetics; format: in vivo; details: human, sc; for Cmax: read-out: Cmax (gMean)
[2] = Example 2 Phase I study in healthy Japanese men: safety and tolerability; format: in vivo, human
Text: This study was a randomised, placebo-controlled, single-blind, and parallel-group clinical trial with up to 3 dose-escalation schemes (Dose Groups [DGs]1 to 3) in healthy Japanese male subjects with BMI 23 to 40 kg/m^2. The weekly (DG1 and DG2) or twice a week (DG3) dosing in this scheme allowed for immediate clinical evaluation whether a further increase in the cumulative weekly dose was safe and well tolerated. The treatment duration was 16 weeks in total including a dose escalation phase to minimize Gastrointestinal (GI) Adverse Events (AEs) of Compound I. This was followed by a 4-week follow-up period.
The primary endpoint to assess the safety and tolerability of Compound I was the cumulative percentage (%) of subjects withdrawn from the up-titration by the dose escalation scheme.
• AEs (including clinically relevant findings from the physical examination) • Safety laboratory tests • 12-lead electrocardiogram (ECG) • Continuous ECG monitoring • Vital signs (blood pressure, pulse rate) • Columbia-Suicide Severity Rating Scale (C-SSRS) • Change from baseline in heart rate following treatment with Compound I relative to placebo (until 24 hours after Compound I administration) • The cumulative number [N (%)] of subjects withdrawn from the up-titration by the dose escalation scheme and week
The main objective of this trial was to assess the safety and tolerability of Compound I as well as PK and PD parameters by using descriptive statistics for all endpoints, which were compared across treatment groups. Further analysis comprised linear modelling for attainment of steady state in DG1.

[3] = plasma half-life in humans; format: in vivo; details: human, estimated

CC[C@H](C)[C@H](NC(=O)[C@H](Cc1ccccc1)NC(=O)[C@H](CC(=O)O)NC(=O)[C@H](CCCCN)NC(=O)[C@H](C)NC(=O)[C@H](C)NC(=O)[C@H](CCCNC(=N)N)NC(=O)[C@H](CCC(=O)O)NC(=O)[C@H](CC(=O)O)NC(=O)[C@H](CC(C)C)NC(=O)[C@H](Cc1ccc(O)cc1)NC(=O)[C@H](CCCCN)NC(=O)[C@H](CO)NC(=O)[C@H](Cc1ccc(O)cc1)NC(=O)[C@H](CC(=O)O)NC(=O)[C@H](CO)NC(=O)[C@@H](NC(=O)[C@H](Cc1ccccc1)NC(=O)[C@@H](NC(=O)CNC(=O)[C@H](CCC(N)=O)NC(=O)C1(NC(=O)[C@@H](N)Cc2c[nH]cn2)CCC1)[C@@H](C)O)[C@@H](C)O)C(=O)N[C@@H](CCCCNC(=O)CNC(=O)CNC(=O)[C@H](CO)NC(=O)CNC(=O)[C@H](CO)NC(=O)CNC(=O)CC[C@H](NC(=O)CCCCCCCCCCCCCCCCC(=O)O)C(=O)O)C(=O)N[C@@H](Cc1c[nH]c2ccccc12)C(=O)N[C@@H](CC(C)C)C(=O)N[C@@H](CCC(=O)O)C(=O)N[C@@H](CO)C(=O)N[C@@H](C)C(N)=O [Compound I]
Cmax ([1]; 1.8 mg, Ex.1 weekly scheme 4, wk 11, 1.8 mg sc): 0.0699 µM
AUC(0-t) ([1]; 1.8 mg, Ex.1 weekly scheme 4, wk 19, 1.8 mg sc, read-out: AUC0-168 (gMean)): 6.66 µM·h
Cmax ([1]; 1.8 mg, Ex.1 weekly scheme 4, wk 19, 1.8 mg sc): 0.0602 µM
AUC(0-t) ([1]; 1.8 mg, Ex.1 weekly scheme 5, wk 5, 1.8 mg sc, read-out: AUC0-168 (gMean)): 6.08 µM·h
Cmax ([1]; 1.8 mg, Ex.1 weekly scheme 5, wk 5, 1.8 mg sc): 0.0579 µM
AUC(0-t) ([1]; 1.8 mg, Ex.1 weekly scheme 5, wk 6, 1.8 mg sc, read-out: AUC0-168 (gMean)): 6.77 µM·h
Cmax ([1]; 1.8 mg, Ex.1 weekly scheme 5, wk 6, 1.8 mg sc): 0.0633 µM
AUC(0-t) ([1]; 2 mg, Ex.1 weekly scheme 2, wk 5, 2.0 mg sc, read-out: AUC0-168 (gMean)): 6.55 µM·h
Cmax ([1]; 2 mg, Ex.1 weekly scheme 2, wk 5, 2.0 mg sc): 0.0577 µM
AUC(0-t) ([1]; 2.1 mg, Ex.1 twice weekly scheme, wk 13, 2.1 mg sc, read-out: AUC0-72 (gMean)): 6.7 µM·h
Cmax ([1]; 2.1 mg, Ex.1 twice weekly scheme, wk 13, 2.1 mg sc): 0.108 µM
AUC(0-t) ([1]; 2.4 mg, Ex.1 twice weekly scheme, wk 15, 2.4 mg sc, read-out: AUC0-72 (gMean)): 7.62 µM·h
Cmax ([1]; 2.4 mg, Ex.1 twice weekly scheme, wk 15, 2.4 mg sc): 0.132 µM
AUC(0-t) ([1]; 2.4 mg, Ex.1 twice weekly scheme, wk 16, 2.4 mg sc, read-out: AUC0-72 (gMean)): 8.55 µM·h
Cmax ([1]; 2.4 mg, Ex.1 twice weekly scheme, wk 16, 2.4 mg sc): 0.142 µM
AUC(0-t) ([1]; 2.4 mg, Ex.1 weekly scheme 2, wk 6, 2.4 mg sc, read-out: AUC0-168 (gMean)): 8.19 µM·h
Cmax ([1]; 2.4 mg, Ex.1 weekly scheme 2, wk 6, 2.4 mg sc): 0.0706 µM
AUC(0-t) ([1]; 2.4 mg, Ex.1 weekly scheme 3, wk 5, 2.4 mg sc, read-out: AUC0-168 (gMean)): 7.19 µM·h
Cmax ([1]; 2.4 mg, Ex.1 weekly scheme 3, wk 5, 2.4 mg sc): 0.063 µM
AUC(0-t) ([1]; 2.4 mg, Ex.1 weekly scheme 4, wk 13, 2.4 mg sc, read-out: AUC0-168 (gMean)): 10.3 µM·h
Cmax ([1]; 2.4 mg, Ex.1 weekly scheme 4, wk 13, 2.4 mg sc): 0.0883 µM
AUC(0-t) ([1]; 2.4 mg, Ex.1 weekly scheme 4, wk 15, 2.4 mg sc, read-out: AUC0-168 (gMean)): 10.9 µM·h
Cmax ([1]; 2.4 mg, Ex.1 weekly scheme 4, wk 15, 2.4 mg sc): 0.0871 µM
AUC(0-t) ([1]; 2.4 mg, Ex.1 weekly scheme 4, wk 16, 2.4 mg sc, read-out: AUC0-168 (gMean)): 11.5 µM·h
Cmax ([1]; 2.4 mg, Ex.1 weekly scheme 4, wk 16, 2.4 mg sc): 0.0973 µM
AUC(0-t) ([1]; 2.4 mg, Ex.1 weekly scheme 5, wk 7, 2.4 mg sc, read-out: AUC0-168 (gMean)): 9.08 µM·h
Cmax ([1]; 2.4 mg, Ex.1 weekly scheme 5, wk 7, 2.4 mg sc): 0.0778 µM
AUC(0-t) ([1]; 3 mg, Ex.1 weekly scheme 3, wk 6, 3.0 mg sc, read-out: AUC0-168 (gMean)): 10.4 µM·h
Cmax ([1]; 3 mg, Ex.1 weekly scheme 3, wk 6, 3.0 mg sc): 0.0887 µM
AUC(0-t) ([1]; 3 mg, Ex.1 weekly scheme 5, wk 9, 3.0 mg sc, read-out: AUC0-168 (gMean)): 11.3 µM·h
Cmax ([1]; 3 mg, Ex.1 weekly scheme 5, wk 9, 3.0 mg sc): 0.102 µM
AUC(0-t) ([1]; 3.6 mg, Ex.1 weekly scheme 5, wk 11, 3.6 mg sc, read-out: AUC0-168 (gMean)): 14.2 µM·h
Cmax ([1]; 3.6 mg, Ex.1 weekly scheme 5, wk 11, 3.6 mg sc): 0.129 µM
AUC(0-t) ([1]; 4.2 mg, Ex.1 weekly scheme 5, wk 13, 4.2 mg sc, read-out: AUC0-168 (gMean)): 15.9 µM·h
Cmax ([1]; 4.2 mg, Ex.1 weekly scheme 5, wk 13, 4.2 mg sc): 0.134 µM
AUC(0-t) ([1]; 4.8 mg, Ex.1 weekly scheme 5, wk 15, 4.8 mg sc, read-out: AUC0-168 (gMean)): 18.7 µM·h
Cmax ([1]; 4.8 mg, Ex.1 weekly scheme 5, wk 15, 4.8 mg sc): 0.161 µM
AUC(0-t) ([1]; 4.8 mg, Ex.1 weekly scheme 5, wk 16, 4.8 mg sc, read-out: AUC0-168 (gMean)): 19.7 µM·h
Cmax ([1]; 4.8 mg, Ex.1 weekly scheme 5, wk 16, 4.8 mg sc): 0.193 µM
AEs in the cardiac disorder class ([2]; Ex.2): no AEs reported
clinical laboratory values ([2]; Ex.2): Findings of clinical relevance were not observed
deaths and AEs of special interest ([2]; Ex.2): neither deaths nor AEs of special interest reported
vital signs, ECG evaluation, local tolerability, suicidal risk assessment ([2]; Ex.2): No clinically relevant findings
Subjects with investigator defined drug-related AEs ([2]; Ex.2 Cmp I Total): 27 N
Number of subjects withdrawn from the up-titration ([2]; Ex.2 Compound I Total): 10 N
pulse rate ([2]; Ex.2 Compound I dosing groups): expected increase in pulse rate
Number of subjects withdrawn from the up-titration ([2]; Ex.2 DG1): 2 N
subjects with AE decreased appetite ([2]; Ex.2 DG1): 8 subjects
subjects with AE decreased appetite ([2]; Ex.2 DG1, of 9 trial subjects): 88.9%
Number of subjects withdrawn from the up-titration ([2]; Ex.2 DG2): 6 N
subjects with AE decreased appetite ([2]; Ex.2 DG2): 9 subjects
subjects with severe vomiting ([2]; Ex.2 DG2): 1 subject
subjects with AE decreased appetite ([2]; Ex.2 DG2, of 9 trial subjects): 100.0%
subjects with severe vomiting ([2]; Ex.2 DG2, of 9 trial subjects): 11.1%
subjects with AE decreased appetite ([2]; Ex.2 DG3): 7 subjects
subjects with severe diarrhoea ([2]; Ex.2 DG3): 1 subject
Number of subjects withdrawn from the up-titration ([2]; Ex.2 DG3 (twice weekly)): 2 N
subjects with AE decreased appetite ([2]; Ex.2 DG3, of 9 trial subjects): 77.8%
subjects with severe diarrhoea ([2]; Ex.2 DG3, of 9 trial subjects): 11.1%
half-life [3]: ~110 h
